# According to patent US12378250B2, “Tricyclic compound as IRAK4 inhibitor” (KOREA RESEARCH INSTITUTE OF CHEMICAL TECHNOLOGY, priority 2018, dated 2025):
# Legend:
# [1] = system: ISG promoter, THP1-Lucia™ ISG cell line; assay: ISG promoter inhibition, THP1-Lucia ISG cell line; format: cell-based; details: 1 μg/ml Poly(dA:dT)/LyoVec, 24 hours, read-out: ISG, % inhibition degree
# Method: (§1) A THP1-Lucia™ NF-κB cell line (Invivogen) was used in an NF-κB inhibition experiment, and a THP1-Lucia™ ISG cell line was used in an ISG inhibition experiment. In the NF-κB inhibition experiment, cells were planted at a density of 1×10^4 cells/well in a 96-well plate, and in the ISG inhibition experiment, cells were planted at a density of 2×10^4 cells/well in a 96-well plate. The cells were treated with a compound diluted to 4-fold of a final concentration, and totally cultured for 30 minutes. NF-κB was treated with 100 ng/ml lipopolysaccharide (LPS), ISG was treated with a stimulator of 1 μg/ml Poly(dA:dT)/LyoVec, and NF-κB and ISG were cultured for 24 hours. 10 μl of a cell supernatant was taken and transferred to a 96-well plate. 50 μl of a Quanti-luc solution was aliquoted using an automatic aliquoter of a measurer (Envision Multilabel Plate Reader, Perkin Elmer, Inc.), and light emission signals were measured.
# [2] = system: TNF-α in serum, LPS-induced systemic inflammatory disease; assay: Suppressive effects on LPS-induced systemic inflammatory disease in mice (serum TNF-α); format: in vivo, C57BL/6 mice; details: doses of 50 and 100 mg/kg, oral, 2 hours prior to LPS 15 mg/kg i.p.
# Method: As experimental animals, 8-week-old C57BL/6 (20 to 23 g) mice were supplied from Orient Bio Co., Ltd. (Seongnam, Gyeonggi-do) and used. The mice were acclimatized for 2 weeks or more in an animal room of the Korea Research Institute of Chemical Technology, where temperature (22±1° C.) and humidity (50±10%) were automatically adjusted, and then used for experiments, and allowed to freely ingest water and feed. This animal experiment was performed with the approval of the Animal Care and Use Committee of the Korea Research Institute of Chemical Technology. A systemic inflammatory disease was induced by administering a dose of 15 mg/kg lipopolysaccharide (LPS, Sigma L2880) intraperitoneally to the mice. A test drug was suspended in a 10% Cremophor solution and administered orally 2 hours prior to LPS injection, the mice were anesthetized with isoflurane 1 hour after LPS administration, and blood was collected from the heart. Serum was obtained by centrifuging the collected blood at 13,000 rpm for 15 minutes, store at −20° C., and then taken if needed to measure the content of cytokine (TNF-α) in serum using an ELISA kit manufactured by BD Biosciences. […]
# [3] = system: TNF-α secretion, peripheral blood mononuclear cells (PBMCs); assay: Suppression of TNF-α secretion in LPS-treated PBMCs (ELISA); format: cell-based; details: PBMC, 100 ng/ml LPS, 24 hours, read-out: TNF-α, % inhibition degree
# Method: (§2) Peripheral blood mononuclear cells (PBMCs) isolated from whole blood were distributed in a 96-well plate. TNF-α was aliquoted at a density of 1×10^5 cells/well, IFN-α was aliquoted at a density of 2×10^5 cells/well, and TNF-α and IFN-α were treated with a compound diluted to 4-fold of a final concentration and totally cultured for 30 minutes. TNF-α was treated with 100 ng/ml lipopolysaccharide (LPS), IFN-α was treated with 500 nM ODN2216 (CpGTLR9 stimulator), and TNF-α and IFN-α were further cultured for 24 hours and 72 hours, respectively. An enzyme-linked immunosorbent assay (ELISA) was performed on TNF-α and IFN-α using an ELISA kit manufactured by BD Biosciences and an ELISA kit manufactured by PBL Assay Science, Inc., respectively. A cell supernatant and a standard drug were put into the ELISA plates and reacted for 2 hours. The plates were washed and a measurement antibody and streptavidin-HRP were sequentially added thereto. After the plates were washed, a TMB substrate was added thereto and reacted in a dark place. The reaction was stopped by adding a stop solution thereto, and the absorbance at 450 nm and 570 nm was measured using an absorber (OPTIMax tunable microplate reader, molecular devices). The experimental results are shown in [Table 2].
# [4] = system: NF-κB promoter, THP1-Lucia™ NF-κB cell line; assay: NF-κB promoter inhibition, THP1-Lucia NF-κB cell line; format: cell-based; details: 100 ng/ml LPS, 24 hours, read-out: NF-κB, % inhibition degree
# Method: as §1
# [5] = system: IFN-α secretion, peripheral blood mononuclear cells (PBMCs); assay: Suppression of IFN-α secretion in ODN2216-treated PBMCs (ELISA); format: cell-based; details: PBMC, 500 nM ODN2216, 72 hours, read-out: IFN-α, % inhibition degree
# Method: as §2
# IRAK4 enzyme = target: T1, IRAK4 enzyme (Homo sapiens, UniProt Q9NWZ3); assay: IRAK4 enzyme inhibition degree (bead-based kinase assay, peptide substrate BMKC-2, 100 μM ATP); format: biochemical; details: for inhibition at 1 µM: compound 1 μM
# T1 sequence (Q9NWZ3 1-460): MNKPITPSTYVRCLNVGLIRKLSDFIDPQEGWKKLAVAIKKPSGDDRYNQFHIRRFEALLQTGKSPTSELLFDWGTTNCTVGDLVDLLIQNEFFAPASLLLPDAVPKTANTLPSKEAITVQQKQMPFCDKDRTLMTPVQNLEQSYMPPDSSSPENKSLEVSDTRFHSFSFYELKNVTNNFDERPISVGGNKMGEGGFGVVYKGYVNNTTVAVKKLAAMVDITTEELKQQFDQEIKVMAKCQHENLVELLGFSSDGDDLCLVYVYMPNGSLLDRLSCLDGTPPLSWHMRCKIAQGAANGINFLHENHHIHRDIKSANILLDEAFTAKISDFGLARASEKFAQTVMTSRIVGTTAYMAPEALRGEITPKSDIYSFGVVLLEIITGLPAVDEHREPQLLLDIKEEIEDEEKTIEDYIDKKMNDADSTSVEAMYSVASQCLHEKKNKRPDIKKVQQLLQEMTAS
# How it was run: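 IRAK4 (0.4 ng/μl stock) preincubated 10 min with compound, then 6 μM BMKC-2 peptide with 100 μM ATP (mix concentrations) for 60 min at room temperature; EDTA stop. Phospho-Thr antibody with AlphaScreen donor/acceptor beads detected product; % inhibition versus controls, IC50 by non-linear regression.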
inhibition at 1 µM (IRAK4 enzyme),IC50 (IRAK4 enzyme),Structure (SMILES),inhibition at 0.1 µM [1],inhibition at 1 µM [1],suppressive effect on systemic inflammation (serum TNF-α) compared to PF-06650833 [2],inhibition at 0.1 µM [3],inhibition at 1 µM [3],inhibition at 0.1 µM [4],inhibition at 1 µM [4],inhibition at 0.1 µM [5],inhibition at 1 µM [5]
100%,–,"COc1cncc(-c2ccc3[nH]c4ncnc(N[C@H]5CC[C@H](N6CCOCC6)CC5)c4c3c2)c1 [Compound 6aad, 6-(5-methoxypyridin-3-yl)-N-(trans-4-morpholinocyclohexyl)-9H-pyrimido[4,5-b]indole-4-amine]",37%,79%,better suppressive effect than PF-06650833,42%,105%,33%,78%,31%,104%
100%,7.2 nM,"COc1cncc(-c2ccc3[nH]c4nccc(N[C@H]5CC[C@H](N6CCOCC6)CC5)c4c3c2)c1 [Compound 17b, 6-(5-methoxypyridin-3-yl)-N-(trans-4-morpholinocyclohexyl)-9H-pyrimido[2,3-b]indole-4-amine]",4%,80%,–,12%,63%,14%,62%,76%,110%
100%,32.6 nM,COc1cncc(-c2ccc3[nH]c4nccc(N[C@H]5CC[C@H](N6CCN(S(C)(=O)=O)CC6)CC5)c4c3c2)c1 [Compound 17c],2%,52%,–,7%,88%,2%,53%,23%,99%
